Test results: paper PMC9090415, “Discovery of small molecule inhibitors of Plasmodium falciparum apicoplast DNA polymerase” (Journal of Enzyme Inhibition and Medicinal Chemistry, 2022)

Biological target: P. falciparum apicoplast DNA polymerase (Pf-apPOL) (Plasmodium falciparum, UniProt Q8ILY1)
Test: Fluorescence-based high-throughput DNA polymerase assay (molecular beacon), primary screen and dose-response
Type: biochemical
How it was run: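 Single-point screening used 10 µM compound with 20 nM polymerase, 20 nM hairpin substrate and 6 µM dNTPs for 90 min at 25 °C. Confirmatory titrations (2.5–80 µM) followed fluorescence at three times, and IC50 was derived from a fit including a cooperativity term n.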

P. falciparum apicoplast DNA polymerase (Pf-apPOL), sequence (Q8ILY1 entry or part of it): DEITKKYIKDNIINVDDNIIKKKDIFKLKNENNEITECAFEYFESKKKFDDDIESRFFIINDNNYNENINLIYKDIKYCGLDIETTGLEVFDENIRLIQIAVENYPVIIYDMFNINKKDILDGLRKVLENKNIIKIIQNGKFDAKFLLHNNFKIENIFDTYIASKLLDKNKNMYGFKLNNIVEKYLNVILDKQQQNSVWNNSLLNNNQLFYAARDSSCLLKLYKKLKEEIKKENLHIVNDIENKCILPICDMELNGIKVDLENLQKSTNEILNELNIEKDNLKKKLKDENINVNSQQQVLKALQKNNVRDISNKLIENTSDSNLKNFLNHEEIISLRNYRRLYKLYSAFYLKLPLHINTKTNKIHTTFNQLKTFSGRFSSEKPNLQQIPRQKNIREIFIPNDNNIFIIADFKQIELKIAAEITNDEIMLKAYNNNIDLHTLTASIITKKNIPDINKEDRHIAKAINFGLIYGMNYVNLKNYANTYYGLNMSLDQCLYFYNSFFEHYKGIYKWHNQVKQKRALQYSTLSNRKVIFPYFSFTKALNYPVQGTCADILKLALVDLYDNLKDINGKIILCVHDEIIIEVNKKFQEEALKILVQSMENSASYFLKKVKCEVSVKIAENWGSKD

Cc1nn(CC(=O)NCCSCc2ccco2)c(C)c1Br [KU0267182]
DNA Pol (186 hits, value of the hit list (primary screen); unit not given; 90 min, 10 µM): 72 | % inhibition Apo pol 10' (DRC-1; 10'; concentration 2.5): 1.812% | % inhibition Apo pol 10' (DRC-1; 10'; concentration 5): 6.711% | % inhibition Apo pol 10' (DRC-1; 10'; concentration 10): 15.4752% | % inhibition Apo pol 10' (DRC-1; 10'; concentration 20): 17.8463% | % inhibition Apo pol 10' (DRC-1; 10'; concentration 40): 47.0773% | % inhibition Apo pol 10' (DRC-1; 10'; concentration 80): 72.2462% | % inhibition Apol 90' (DRC-1; 90'; concentration 2.5): -1.178% | % inhibition Apol 90' (DRC-1; 90'; concentration 5): 2.416% | % inhibition Apol 90' (DRC-1; 90'; concentration 10): 7.223% | % inhibition Apol 90' (DRC-1; 90'; concentration 20): 9.063% | % inhibition Apol 90' (DRC-1; 90'; concentration 40): 29.9709% | % inhibition Apol 90' (DRC-1; 90'; concentration 80): 56.479% | % inhibition apPOL 180' (DRC-1; 180'; concentration 2.5): -4.52% | % inhibition apPOL 180' (DRC-1; 180'; concentration 5): -1.314% | % inhibition apPOL 180' (DRC-1; 180'; concentration 10): 2.547% | % inhibition apPOL 180' (DRC-1; 180'; concentration 20): 1.732% | % inhibition apPOL 180' (DRC-1; 180'; concentration 40): 16.5888% | % inhibition apPOL 180' (DRC-1; 180'; concentration 80): 39.2205% | % inhibition Apo pol 5' (DRC-2, 5', concentration 2.5): 6% | % inhibition Apo pol 5' (DRC-2, 5', concentration 5): 7.46% | % inhibition Apo pol 5' (DRC-2, 5', concentration 10): 16% | % inhibition Apo pol 5' (DRC-2, 5', concentration 20): 23% | % inhibition Apo pol 5' (DRC-2, 5', concentration 40): 43% | % inhibition Apo pol 5' (DRC-2, 5', concentration 80): 55% | % inhibition Apol 40' (DRC-2, 40', concentration 2.5): 7.41% | % inhibition Apol 40' (DRC-2, 40', concentration 5): 7% | % inhibition Apol 40' (DRC-2, 40', concentration 10): 15% | % inhibition Apol 40' (DRC-2, 40', concentration 20): 21% | % inhibition Apol 40' (DRC-2, 40', concentration 40): 45% | % inhibition Apol 40' (DRC-2, 40', concentration 80): 64% | % inhibition ApPOL 90' (DRC-2, 90', concentration 2.5): 6% | % inhibition ApPOL 90' (DRC-2, 90', concentration 5): 4% | % inhibition ApPOL 90' (DRC-2, 90', concentration 10): 12% | % inhibition ApPOL 90' (DRC-2, 90', concentration 20): 16% | % inhibition ApPOL 90' (DRC-2, 90', concentration 40): 39% | % inhibition ApPOL 90' (DRC-2, 90', concentration 80): 63% | % inhibition apPOL 180' (DRC-2, 180', concentration 2.5): 0.763% | % inhibition apPOL 180' (DRC-2, 180', concentration 5): -0.774% | % inhibition apPOL 180' (DRC-2, 180', concentration 10): 3.79% | % inhibition apPOL 180' (DRC-2, 180', concentration 20): 7.41% | % inhibition apPOL 180' (DRC-2, 180', concentration 40): 27% | % inhibition apPOL 180' (DRC-2, 180', concentration 80): 55% | % inhibition Apo pol 5' (DRC-2; 5'; concentration 2.5): 6% | % inhibition Apo pol 5' (DRC-2; 5'; concentration 10): 16% | % inhibition Apo pol 5' (DRC-2; 5'; concentration 80): 55% | % inhibition Apol 40' (DRC-2; 40'; concentration 2.5): 7.41% | % inhibition ApPOL 90' (DRC-2; 90'; concentration 2.5): 6% | % inhibition ApPOL 90' (DRC-2; 90'; concentration 20): 16% | % inhibition apPOL 180' (DRC-2; 180'; concentration 20): 7.41% | % inhibition apPOL 180' (DRC-2; 180'; concentration 80): 55% | DNA Pol (primary screen value, 'DNA Pol' only; 90 min, 10 µM): 72

CN(C)C1C(c2ccccc2)=C(c2ccccc2)SC(c2ccccc2)C1[N+](=O)[O-] (stereo not shown) [KU0268387]
% inhibition Apo pol 10' (DRC-1; 10'; concentration 2.5): 4.043% | % inhibition Apo pol 10' (DRC-1; 10'; concentration 5): 23.3831% | % inhibition Apo pol 10' (DRC-1; 10'; concentration 10): 45.0315% | % inhibition Apo pol 10' (DRC-1; 10'; concentration 20): 49.4618% | % inhibition Apo pol 10' (DRC-1; 10'; concentration 40): 64.8423% | % inhibition Apo pol 10' (DRC-1; 10'; concentration 80): 77.5449% | % inhibition Apol 90' (DRC-1; 90'; concentration 2.5): 3.398% | % inhibition Apol 90' (DRC-1; 90'; concentration 5): 22.5056% | % inhibition Apol 90' (DRC-1; 90'; concentration 10): 44.0197% | % inhibition Apol 90' (DRC-1; 90'; concentration 20): 52.549% | % inhibition Apol 90' (DRC-1; 90'; concentration 40): 68.5649% | % inhibition Apol 90' (DRC-1; 90'; concentration 80): 83.9893% | % inhibition apPOL 180' (DRC-1; 180'; concentration 2.5): 1.708% | % inhibition apPOL 180' (DRC-1; 180'; concentration 5): 12.7714% | % inhibition apPOL 180' (DRC-1; 180'; concentration 10): 32.8138% | % inhibition apPOL 180' (DRC-1; 180'; concentration 20): 41.7834% | % inhibition apPOL 180' (DRC-1; 180'; concentration 40): 60.315% | % inhibition apPOL 180' (DRC-1; 180'; concentration 80): 80.8354% | % inhibition Apol 40' (DRC-2, 40', concentration 20 (unit not given)): 53% | % inhibition ApPOL 90' (DRC-2, 90', concentration 20 (unit not given)): 53% | % inhibition apPOL 180' (DRC-2, 180', concentration 20 (unit not given)): 47% | % inhibition Apo pol 5' (DRC-2; 5'; concentration 2.5): 0.589% | % inhibition Apo pol 5' (DRC-2; 5'; concentration 5): 19% | % inhibition Apo pol 5' (DRC-2; 5'; concentration 10): 32% | % inhibition Apo pol 5' (DRC-2; 5'; concentration 20): 40% | % inhibition Apo pol 5' (DRC-2; 5'; concentration 40): 42% | % inhibition Apo pol 5' (DRC-2; 5'; concentration 80): 47% | % inhibition Apo pol 5' (DRC-2; 5'; concentration 80 (unit not given)): 47% | % inhibition Apol 40' (DRC-2; 40'; concentration 2.5): 1.84% | % inhibition Apol 40' (DRC-2; 40'; concentration 5): 25% | % inhibition Apol 40' (DRC-2; 40'; concentration 10): 39% | % inhibition Apol 40' (DRC-2; 40'; concentration 20): 53% | % inhibition Apol 40' (DRC-2; 40'; concentration 40): 60% | % inhibition Apol 40' (DRC-2; 40'; concentration 80): 68% | % inhibition ApPOL 90' (DRC-2; 90'; concentration 2.5): 0.484% | % inhibition ApPOL 90' (DRC-2; 90'; concentration 5): 23% | % inhibition ApPOL 90' (DRC-2; 90'; concentration 10): 38% | % inhibition ApPOL 90' (DRC-2; 90'; concentration 20): 53% | % inhibition ApPOL 90' (DRC-2; 90'; concentration 40): 62% | % inhibition ApPOL 90' (DRC-2; 90'; concentration 80): 71% | % inhibition apPOL 180' (DRC-2; 180'; concentration 2.5): -3.51% | % inhibition apPOL 180' (DRC-2; 180'; concentration 5): 15% | % inhibition apPOL 180' (DRC-2; 180'; concentration 10): 31% | % inhibition apPOL 180' (DRC-2; 180'; concentration 20): 47% | % inhibition apPOL 180' (DRC-2; 180'; concentration 40): 58% | % inhibition apPOL 180' (DRC-2; 180'; concentration 80): 70% | DNA Pol (primary screen value of the 186 hits; unit not given; 90 min, 10 µM): 78 | DNA Pol (primary screen value, head "DNA Pol", unit not given; 90 min, 10 µM): 78
